Marks after values point to notes of the source that are not given here.
Columns and labels:
Assay type in all cases: in vivo, Sprague-Dawley rats
STZ diabetic rats [1] = assay: Eye examination and cataract classification
Source text: (§1) A well-established model of streptozotocin (STZ)-induced diabetes in rats was used. Streptozotocin is a glucosamine derivative of nitrosurea which selectively destroys the β cells of the pancreatic islets and causes the development of diabetes with hyperglycemia and glycosuria. The model shares a series of characteristics with human diabetic complications at both a functional level and a biochemical level, such as, for example, a reduced nervous conduction, loss of small-diameter sensory nerve fibers in the skin, reduction in Na+ and K+-ATPase activity and early alterations of the thermal and mechanical nociceptive thresholds. In this study, diabetes was induced in 24 rats with a single intraperitoneal injection of 60 mg/kg of STZ dissolved in a sodium citrate buffer (pH 4.5). 24 rats injected only with the vehicle were used as non-diabetic controls. Hyperglycemia was confirmed by measuring glycosuria 72 hours after the injection of STZ using Keto-Diabur strips (KD-5000; Roche Diagnostics Spa, Italy). Only the animals with glycosuria >5% were classified as diabetic and included in the study. […] The animals were then randomized to receive the concentrate of the invention at an HT equivalent dose of 50 mg/kg/day or 50 mg/kg/day of pure HT in drinking water, according to the following treatment groups: The opacity of the eyes and of the crystalline lenses was examined every week starting from the seventh/eighth week after the induction of diabetes, the period in which, in the STZ diabetic model, cataracts manifest themselves. Cataract severity was classified using a validated semi-quantitative scale. In particular, the following assessment scheme and the following scores were used: [table] The opacity index was calculated to quantitatively assess the degree of opacity of the crystalline lens by means of the following formula: [formula]

[2] = Body weight, daily food and water intake in STZ diabetic and control rats; conditions: 5 weeks; for BODY WEIGHT: 50 mg/kg/day (HT equivalent) in drinking water; for BODY WEIGHT / FOOD INTAKE: mean ± S.E.; for WATER INTAKE / FOOD INTAKE: 50 mg/kg/day
Source text: Use was made of 48 male Sprague-Dawley rats (Harlan, Italy) with a weight comprised from 180-200 g. A well-established model of streptozotocin (STZ)-induced diabetes in rats was used. Streptozotocin is a glucosamine derivative of nitrosurea which selectively destroys the β cells of the pancreatic islets and causes the development of diabetes with hyperglycemia and glycosuria. The model shares a series of characteristics with human diabetic complications at both a functional level and a biochemical level, such as, for example, a reduced nervous conduction, loss of small-diameter sensory nerve fibers in the skin, reduction in Na+ and K+-ATPase activity and early alterations of the thermal and mechanical nociceptive thresholds. In this study, diabetes was induced in 24 rats with a single intraperitoneal injection of 60 mg/kg of STZ dissolved in a sodium citrate buffer (pH 4.5). 24 rats injected only with the vehicle were used as non-diabetic controls. Hyperglycemia was confirmed by measuring glycosuria 72 hours after the injection of STZ using Keto-Diabur strips (KD-5000; Roche Diagnostics Spa, Italy). Only the animals with glycosuria >5% were classified as diabetic and included in the study. […] The animals were then randomized to receive the concentrate of the invention at an HT equivalent dose of 50 mg/kg/day or 50 mg/kg/day of pure HT in drinking water, according to the following treatment groups: The daily dose of compounds was administered starting from the 7th week after the injection of STZ or the vehicle. The treatment lasted 5 weeks and urine samples were taken. The animals were then sacrificed and the plasma, kidneys and sciatic nerves were removed. The sacrifice took place within 2 hours after the last administration of the concentrate, HT or the vehicle. During the trial, the rats were weighed weekly to monitor their weight gain/loss. Hyperglycemia was confirmed in every rat by measuring the glucose level in the blood taken from the vein of the tail with a suitable apparatus (Glucomen, Menarini, Italy), 15 days after the injection of STZ. A plasma glucose level above 300 mg/dL was defined as the hyperglycemia threshold for defining the animals as diabetics.

STZ diabetic rats [3] = assay: Mechanical nociceptive threshold (Randall-Selitto test); conditions: non-diabetic rats
Source text: as §1, with “Italy).” for “Italy). Only the animals with glycosuria >5% were classified as diabetic and included in the study.”, “mechanical nociceptive threshold (Randall-Selitto test)” for “opacity of the eyes and of the crystalline lenses”, “assessed” for “examined every week starting from the seventh/eighth week after the induction of diabetes, the period in which, in the STZ diabetic model, cataracts manifest themselves. Cataract severity was classified”, “an electromechanical apparatus (Ugo Basile, Varese, Italy). […]” for “a validated semi-quantitative scale. In particular, the following assessment scheme and the following scores were used: [table] The opacity index was calculated to quantitatively assess the degree of opacity of the crystalline lens by means of the following formula: [formula]”

[4] = non-diabetic control rats (CTRL)

## OCCc1ccc(O)c(O)c1 [HT, hydroxytyrosol]
STZ diabetic rats [1]; end of the fifth week, untreated 67%
  diabetic rats in the fourth cataract phase: 30%
STZ diabetic rats [1]; end of the treatments, untreated none
  eyes with cataracts at stage 0: 3 eyes
STZ diabetic rats [1]; end of treatment, untreated 5.3
  opacity index: 2.0
[2]; STZ diabetic rats
  BODY WEIGHT: 216.6 ± 13.0 g
  WATER INTAKE: 170.1* ml/24 h
  FOOD INTAKE: 33.3 ± 3.7 g/24 h
[2]; [4]
  BODY WEIGHT: 450.4 ± 16.4 g
  WATER INTAKE: 69.5 ml/24 h
  FOOD INTAKE: 20.6 ± 0.9 g/24 h
STZ diabetic rats [3]
  effect on mechanical nociceptive threshold: no effect

— patent publication US20210046139A1, “VEGETATION WATERS AND USES THEREOF” (FATTORIA LA VIALLA DI GIANNI, ANTONIO E BANDINO LO FRANCO - …, priority 2018, published 2021)
